Among the data in US20130172345A1, “1-ACYL-4-(PHENOXY, BENZYLOXY, OR PHENYLAMINO)-1,2,3,4-TETRAHYDROQUINOLINE DERIVATIVES” (KOWA COMPANY, LTD., priority 2007, published 2013) are activity values, retold here.

Counter-ions that a name gives are not always drawn.

This assay has as its system K562 cells, human proerythroblast cells. Briefly: Hemoglobin production in K562 cells (fluorescence of the porphyrin ring). The assay is classed as cell-based. The following applies: 144 h, test compound 6 μM, 3+3 days, non-stimulated state = 100%, read-out: production amount of hemoglobin, % of control (6 μM). As for the experimental part:
K562 cells (obtained from ATCC), which are human proerythroblast cells, were seeded at a density of 1×10^5 cells/1 mL on a 24-well plate by using complete medium (RPMI-1640 medium comprising 10% bovine fetal serum). After adding the test compound having 1000× concentration (1 μL), the cells were incubated for three days in a CO2 incubator (37° C., 5% CO2). After exchanging the medium, the cells were further incubated for three days. Then, the cells were collected and counted. After adjusting them to have 3×10^5 cells, the amount of hemoglobin produced in the cells was determined by measuring fluorescence of the porphyrin ring. Specifically, the cells which had been collected by centrifugation were suspended in 2 M oxalic acid solution (500 μL) and boiled for 30 minutes under heating. After cooling the cells, the fluorescence intensity was measured by Fluorescence micro plate reader (Spectra MAX GeminiEM, manufactured by Molecular Devices Corporation) ([…]). When hemoglobin amount in non-stimulated state, i.e., without addition of any compound, was 100%, the production amount of hemoglobin induced by each compound was calculated (% of control).
For the molecule `CC(=O)N1c2c(F)cccc2[C@H](Oc2ccccc2)C[C@@H]1C` (relative stereo) [Compound 33, cis-1-acetyl-8-fluoro-2-methyl-4-phenoxy-1,2,3,4-tetrahydroquinoline], the activity at 6 µM was determined as 115%. For `CC1CC(Nc2ccc(F)cc2)c2cc(F)ccc2N1C(=O)C1CCCC1` (centres unmarked) [Compound 66, 1-cyclopentanecarbonyl-6-fluoro-2-methyl-4-[(4-fluorophenyl)amino]-1,2,3,4-tetrahydroquinoline], the activity at 6 µM amounted to 151%.

As for `CC(=O)N1CC(C)(C)C(Nc2ccccc2)c2ccccc21` (stereo not drawn) [Compound 60, cis-1-acetyl-3,3-dimethyl-4-phenylamino-1,2,3,4-tetrahydroquinoline], the activity at 6 µM amounted to 113%. To `CC(=O)N1c2ccc(F)cc2[C@H](Oc2ccccc2)C[C@@H]1C` (relative stereo) [Compound 35, cis-1-acetyl-6-fluoro-2-methyl-4-phenoxy-1,2,3,4-tetrahydroquinoline] belongs 287%; to `CC(=O)N1c2ccc(N3CCOCC3)cc2C(Nc2ccc(CC(N)=O)cc2)CC1C` (centres unmarked) [Compound 90, 1-acetyl-4-[(4-carbamoylmethylphenyl)amino]-2-methyl-6-morpholino-1,2,3,4-tetrahydroquinoline], 241%; to `CCN(CC)C(=O)N1CCN(c2ccc3c(c2)C(Nc2ccc(Cl)cc2)CC(C)N3C(C)=O)CC1` (centres unmarked) [Compound 87, 1-acetyl-4-[(4-chlorophenyl)amino]-6-[4-(N,N-diethylaminocarbonyl)piperazino]-2-methyl-1,2,3,4-tetrahydroquinoline], 262%.

In the case of `CC(=O)N1c2ccc(N3CCN(C(=O)NC(C)C)CC3)cc2C(Nc2ccc(Cl)cc2)CC1C` (centres unmarked) [Compound 88, 1-acetyl-4-[(4-chlorophenyl)amino]-6-[4-(isopropylaminocarbonyl)piperazino]-2-methyl-1,2,3,4-tetrahydroquinoline], the activity at 6 µM is 112%. Consider `CC(=O)N1c2ccc(-c3nc(=O)o[nH]3)cc2C(Nc2ccc(Cl)cc2)CC1C` (centres unmarked) [Compound 120, 1-acetyl-4-[(4-chlorophenyl)amino]-2-methyl-6-[1,2,4-oxadiazol-5(2H)-on-3-yl]-1,2,3,4-tetrahydroquinoline], for which the activity at 6 µM was 188%. To `CC(=O)N1c2cc(F)ccc2[C@H](Oc2ccccc2)C[C@@H]1C` (relative stereo) [Compound 32, cis-1-acetyl-7-fluoro-2-methyl-4-phenoxy-1,2,3,4-tetrahydroquinoline] belongs 145%; to `CC(=O)N1c2ccccc2[C@H](Oc2ccc(OCc3ccccc3)cc2)C[C@@H]1C` (relative stereo) [Compound 64, cis-1-acetyl-4-(4-benzyloxyphenoxy)-2-methyl-1,2,3,4-tetrahydroquinoline], 113%. Regarding `CC(=O)N1c2ccc(C(N)=O)cc2[C@H](Nc2ccc(CC(N)=O)cc2)C[C@@H]1C` (relative stereo) [Compound 106, cis-1-acetyl-4-[(4-carbamoylmethylphenyl)amino]-2-methyl-1,2,3,4-tetrahydroquinoline-6-carboxamide], the activity at 6 µM was 227%. For `CCOC(=O)Cc1ccc(NC2CC(C)N(C(C)=O)c3ccc(NS(C)(=O)=O)cc32)cc1` (centres unmarked) [Compound 99, 1-acetyl-6-methanesulfonylamino-2-methyl-4-[(4-ethoxycarbonylmethylphenyl)amino]-1,2,3,4-tetrahydroquinoline], the activity at 6 µM stood at 69%. To `CC(=O)N1c2ccc(C(=O)NN)cc2C(Nc2ccc(Cl)cc2)CC1C` (centres unmarked) [Compound 115, 1-acetyl-4-[(4-chlorophenyl)amino]-2-methyl-1,2,3,4-tetrahydroquinoline-6-carbohydrazide] belongs 163%; to `CC(=O)Nc1ccc2c(c1)C(Nc1ccc(Cl)cc1)CC(C)N2C(C)=O` (centres unmarked) [Compound 96, 1-acetyl-6-acetylamino-4-[(4-chlorophenyl)amino]-2-methyl-1,2,3,4-tetrahydroquinoline], 530%; to `CC(=O)N1c2ccc(C(N)=O)cc2[C@H](Nc2ccc(NS(C)(=O)=O)cc2)C[C@@H]1C` (relative stereo) [Compound 102, cis-1-acetyl-4-[(4-methanesulfonylaminophenyl)amino]-2-methyl-1,2,3,4-tetrahydroquinoline-6-carboxamide], 91%. Take `COc1cccc2c1N(C(C)=O)C(C)CC2Nc1ccccc1` (centres unmarked) [Compound 61, 1-acetyl-4-phenylamino-8-methoxy-2-methyl-1,2,3,4-tetrahydroquinoline]: the activity at 6 µM came out at 132%. As for `COc1ccc2c(c1)N(C(C)=O)C(C)CC2Nc1ccccc1` (centres unmarked) [Compound 48, 1-acetyl-2-methyl-7-methoxy-4-phenylamino-1,2,3,4-tetrahydroquinoline], the figure is 139%. As for `CC(=O)N1c2ccc(C(=O)N3CCOCC3)cc2C(Nc2ccc(Cl)cc2)CC1C` (centres unmarked) [Compound 93, 1-acetyl-4-[(4-chlorophenyl)amino]-6-[(1-morpholino)carbonyl]-2-methyl-1,2,3,4-tetrahydroquinoline.hydrochloride], the figure is 245%; as for `CC(=O)N1CCN(c2ccc3c(c2)C(Nc2ccc(CC(=O)O)cc2)CC(C)N3C(C)=O)CC1` (centres unmarked) [Compound 91, 1-acetyl-6-(4-acetylpiperazinyl)-4-[(4-carboxymethylphenyl)amino]-2-methyl-1,2,3,4-tetrahydroquinoline], 130%. To `CCC1CC(Nc2ccccc2)c2ccccc2N1C(C)=O` (centres unmarked) [Compound 59, 1-acetyl-2-ethyl-4-phenylamino-1,2,3,4-tetrahydroquinoline] belongs 108%.

In the case of `CC(=O)N1c2ccc(N3CCOCC3)cc2C(Nc2ccc(CC(=O)O)cc2)CC1C` (centres unmarked) [Compound 89, 1-acetyl-4-[(4-carboxymethylphenyl)amino]-6-morpholino-2-methyl-1,2,3,4-tetrahydroquinoline], the activity at 6 µM came to 154%. To `CC(=O)N1c2ccccc2[C@H](Nc2ccccc2C(=O)O)C[C@@H]1C` (relative stereo) [Compound 109, cis-1-acetyl-4-[(2-carboxyphenyl)amino]-2-methyl-1,2,3,4-tetrahydroquinoline] belongs 229%; to `CC(=O)N1c2c(Br)cccc2C(Nc2ccccc2)CC1C` (centres unmarked) [Compound 63, 1-acetyl-8-bromo-4-phenylamino-2-methyl-1,2,3,4-tetrahydroquinoline], 98%; to `CC(=O)N1c2ccc(NCCO)cc2C(Nc2ccc(Cl)cc2)CC1C` (centres unmarked) [Compound 82, 1-acetyl-4-[(4-chlorophenyl)amino]-6-[(2-hydroxy)ethylamino]-2-methyl-1,2,3,4-tetrahydroquinoline], 325%.

For the molecule `CC(=O)N1c2ccc(NS(C)(=O)=O)cc2C(Nc2ccc(N3CCOCC3)cc2)CC1C` (centres unmarked) [Compound 98, 1-acetyl-6-methanesulfonylamino-2-methyl-4-[(4-morpholinophenyl)amino]-1,2,3,4-tetrahydroquinoline], the activity at 6 µM stood at 56%. To `CC(=O)N1c2ccc(N3CCN(C(=O)c4ccccc4)CC3)cc2C(Nc2ccc(Cl)cc2)CC1C` (centres unmarked) [Compound 86, 1-acetyl-6-[(4-benzoyl)piperazino]-2-methyl-4-[(4-chlorophenyl)amino]-1,2,3,4-tetrahydroquinoline] belongs 237%.
